“And” between values parts separate entries of the source, which are not always exact repeats. Equal entries are not always repeated.
Legend:
Format in all cases: cell-based
PLB protein = assay: Western blot quantification of PLB protein content in myocytes infected with adenovirus transgenes; settings: normalized to a-actin, compared with adenovirus/SR control lacking the transgene
From the text: FIG. 6a is a Western blot analysis of myocytes containing the adenovirus transgenes expressing sense PLB (sPLB), antisense PLB (asPLB), E2A, R14E, S16N, and K3E/R14E against monoclonal PLB. FIG. 6b is a Western blot showing the results of cell infectivity by PLB, sPLB and K3E/R14E. FIG. 6c illustrates the Western blot analysis of PLB infectivity of So18 cells.
Additional Western blot analysis of myocytes containing the adenovirus transgenes expressing sense PLB (sPLB), antisense PLB (asPLB), E2A, R14E, S1.6N, and K3E/R14E against monoclonal PLB antibody (Affinity BioReagents) is shown in FIG. 6a. […] In contrast, asPLB and S16N results in 54% and 33% decrease in PLB protein content within the myocytes. The introduction of K3E/R14E transgene infection of myocytes leads to a formation of a distinct pattern of pentamer PLB. Multiple PLB bands appear in addition to PLB5 (the pentamer).

[1] = test system: isolated mouse cardiomyocytes; assay: Contraction cycle of isolated mouse cardiomyocytes with penetratin-PLB peptide; settings: 10 μM peptide; for Maximum Contract. / Minimum Contract.: arbitrary unit of length, single samples 1-7 and Mean; for Relax. Slope: control mean 0.9814
From the text: Cell level studies were done to evaluate the ability of two penetratin-based peptides, two mutant PLB-penetratin peptides, and two multiple antigen peptides (MAP) to strengthen the contraction cycle of isolated mouse cardiomyocytes. The two penetratin-based peptides include PLB-ANT (Seq. ID. No. 10) and TAT-PLB (Seq. ID. No. 11) each of which have a 20 residue portion of the PLB sequence attached to either the 5′ end of ANT (Seq. ID. No. 14) or the 3′ end of TAT (Seq. ID. No. 15). The two mutant PLB peptides, mutant PLB-ANT (Seq. ID. No. 12) and TAT-mutant PLB (Seq. ID No. 13), display a S16E mutation of the 20 residue PLB sequence. The multiple antigen peptides include MAP with 8 penetratin (ANT) domains and MAP with 4 penetratin domains and 4 PLB domains.
Each of the penetratin-PLB peptides were evaluated to measure their ability to strengthen the contraction cycle of isolated mouse cardiomyocytes, the idea being that the penetratin-PLB peptide would act as a dominant negative inhibitor of the PLE3-SERCA2a interaction.
Measurements were taken every 20 milliseconds, and the unit of length was arbitrary, but was generally on the order of one complete cell length. Percent contraction was calculated as (maximum length minus minimum length) divided by maximum length. A plot of time versus length generated a U-shaped curve from which the most linear segments were selected, with the left side of the “U” representing contraction and the right side representing relaxation.

SR Ca2+ transport = assay: Radioactive Ca2+ transport assay (SR Ca2+ transport); settings: adenoviral vector expressing contractilin, rat cardiomyocytes
Protocol: The amplified and purified hypervariable region RNA is then fused to a single cDNA (Seq. ID. No. 9) and subsequently cloned in frame into a plasmid vector, coding for a phage surface protein. Using standard phage display technique, phages which express the immune library of the chicken are selected by their positive response to the PLB peptide. After a series of enrichment for phages which specifically bind PLB, 20 clones are selected for ELISA. The resulting 5 best binders are then analyzed using a radioactive Ca^2+ transport assay. The two best activators of SR Ca^2+ transport are further analyzed. Both clones are found to dramatically stimulate the rate of Ca^2+ transport into the SR.

For “E2A: adenoviral single point mutation of PLB, Seq. ID. No. 3 (MAKVQYLTRSAIRRASTIEMPQQARQKLQNLFINFCLILICLLLICIIVMLL; adenoviral vector; listed as Homo sapiens)”, the “increase in PLB protein level” value (PLB protein) was 72%.

With “R14E: adenoviral single point mutation of PLB, Seq. ID. No. 4 (MEKVQYLTRSAIREASTIEMPQQARQKLQNLFINFCLILICLLLICIIVMLL; adenoviral vector; listed as Homo sapiens)” the “increase in PLB protein level” value (PLB protein) was 57%.

In the case of “TAT-PLB: 20 residue portion of the PLB sequence attached to the 3′ end of TAT, Seq. ID. No. 11 (GGGGYGRKKRRQRRRMEKVQYLTRSAIRRASTIEM; listed as Homo sapiens)”, the “effect on myocyte contraction (overall)” value ([1]; T-test, no statistical difference) is reported as “trend towards a larger, faster contraction”, the “Maximum Contract.” value [1] is reported as 112.57 and 109.68 and 133.82 and 81.61 and 74.423 and 126.89 and 133.61 and the “Minimum Contract.” value [1] is reported as 101.17 and 102.00 and 116.32 and 67.871 and 64.629 and 108.38 and 128.21. The “Maximum Contract.” value ([1]; mean) was 110.373, the “Minimum Contract.” value ([1]; mean) was 98.363 and the “Relax. Slope” value [1] was 0.9925 and 0.9790 and 0.9878 and 0.9697 and 0.9933 and 0.9939 and 0.9959. For the same molecule, the “Relax. Slope” value ([1]; mean) was 0.9874.

B1: contractilin: recombinant protein from chicken polyclonal PLB antibody hypervariable regions, expressed from adenoviral vector (Seq. ID. No. 9) (protein, listed as Homo sapiens)
chain: MHHHHHHVAQAALTHSSSVSANPGETVKITCSGGGNYAGSYYYGWFQQKSPGSAPVTVIYSNDQRPSNIPSRFSGSTSGSTSTLTITGVRAEDEAVYFCGSNSGTGYVGIFGAGTTLTVLGQSSRSSTVTLDESGGGLQTPGGALSLVCRASGFTFSRFHMMWVRQAPGKGLEWVAGIDDGGSFTLYGAAVKGRATILRDNGQSTVRLQLDNLRPEDTATYFCVKTKCGGNGWCGADRIDAWGHGTEVIVSSTSGQAGQYPYDVPDYAS
B1 was tested, and the “cytoplasmic Ca2+ removal” value (SR Ca2+ transport) was “accelerates cytoplasmic Ca^2+ removal”.

Source: patent publication US20090149412A1, “Method for Inhibition of Phospholamban Activity for the Treatment of Cardiac Disease and Heart Failure” (THE REGENTS OF THE UNIVERSITY OF CALIFORNIA, priority 1999, published 2009)
